US7842691B2, “Method for the treatment of myelodysplastic syndromes using cyclopropanecarboxylic acid {2-[1-(3-ethoxy-4-methoxy-phenyl)-2-methanesulfonyl-ethyl]-3-OXO-2,3-dihydro-1 H-isoindol-4-yl}-amide” (Celgene Corporation, priority 2003, dated 2010)

Tests used:
MDS patients = settings: cited from earlier work; for granulocytopoiesis in treated patients / improvement in hemoglobin or platelet counts: clinical trials of MDS patients
[1] = tested on: MDS bone marrow progenitor formation; experiment: MDS vs normal bone marrow progenitor formation in pre-clinical models; format: cell-based
Excerpt: (§1) The pharmacological effects of 3-(3,4-dimethoxy-phenyl)-3-(1-oxo-1,3-dihydro-isoindol-2-yl)-propionamide derive from its action as an inhibitor of cellular response to receptor-initiated trophic signals (e.g., IGF-1, VEGF, cyclooxygenase-2), and other activities.

[2] = tested on: production of various cytokines; experiment: In vitro pharmacology studies, effects on production of various cytokines, activity comparison with thalidomide; format: cell-based, human
Experimental: The pharmacological properties of 3-(3,4-dimethoxy-phenyl)-3-(1-oxo-1,3-dihydro-isoindol-2-yl)-propionamide, including activity comparisons with thalidomide, are characterized in in vitro studies. Studies examine the effects of 3-(3,4-dimethoxy-phenyl)-3-(1-oxo-1,3-dihydro-isoindol-2-yl)-propionamide on the production of various cytokines. In addition, a safety pharmacology study of -(3,4-dimethoxy-phenyl)-3-(1-oxo-1,3-dihydro-isoindol-2-yl)-propionamide is conducted in dogs and the effects of the compound on ECG parameters are examined further as part of three repeat-dose toxicity studies in primates.
Inhibition of TNF-α production following LPS-stimulation of human PBMC and human whole blood by 3-(3,4-dimethoxy-phenyl)-3-(1-oxo-1,3-dihydro-isoindol-2-yl)-propionamide is investigated in vitro (Muller et al., Bioorg. Med. Chem. Lett. 9:1625-1630, 1999). The IC50's of 3-(3,4-dimethoxy-phenyl)-3-(1-oxo-1,3-dihydro-isoindol-2-yl)-propionamide for inhibiting production of TNF-α following LPS-stimulation of PBMC and human whole blood is measured.
as §1

AML cells = experiment: Mitogenic response to VEGF in AML cells (ligand-induced Akt-phosphorylation); format: cell-based; settings: by extinguishing ligand-induced Akt-phosphorylation
Excerpt: as §1

Row | Molecule | granulocytopoiesis in treated patients (MDS patients) | improvement in hemoglobin or platelet counts (MDS patients) | further results
1 | granulocyte macrophage colony stimulating factor [GM-CSF] | can restore granulocytopoiesis | little or no improvement | 
2 | erythropoietin [recombinant human EPO] |  |  | patients with sustained improvement in hemoglobin or decrease in transfusion requirement (MDS patients; MDS patients treated with recombinant human EPO): less than 25 % of patients
3 | COc1ccc(C(CC(N)=O)N2Cc3ccccc3C2=O)cc1OC (centres unmarked) [3-(3,4-dimethoxy-phenyl)-3-(1-oxo-1,3-dihydro-isoindol-2-yl)-propionamide] |  |  | MDS vs normal bone marrow progenitor formation [1]: selectively suppresses MDS vs normal bone marrow progenitor formation; generation of inflammatory cytokines [2]: suppresses the generation of inflammatory cytokines; mitogenic response to VEGF (AML cells): abrogates mitogenic response to VEGF in AML cells
4 | granulocyte colony stimulating factor (protein, UniProt P09919 31-207, looked up, granulocyte colony stimulating factor, recombinant human) Granulocyte …: TPLGPASSLPQSFLLKCLEQVRKIQGDGAALQEKLVSECATYKLCHPEELVLLGHSLGIPWAPLSSCPSQALQLAGCLSQLHSGLFLYQGLLQALEGISPELGPTLDTLQLDVADFATTIWQQMEELGMAPALQPTQGAMPAFASAFQRRAGGVLVASHLQSFLEVSYRVLRHLAQP | can restore granulocytopoiesis | little or no improvement | 
